Test results: ChEMBL document CHEMBL5154795, “Exploring the structure-activity relationships of diphenylurea as an antibacterial scaffold active against methicillin- and vancomycin-resistant Staphylococcus aureus” (Eur J Med Chem, 2022)
In brackets after ≈: the same amount, converted by molar mass. Activity calls are given as the source filed them. The calls are words filed in the database; no cut-off is given here.

How the values were obtained:
Staphylococcus aureus [1] = assay: Potentiation of vancomycin-induced antibacterial activity against vancomycin-resistant Staphylococcus aureus 2 assessed as vancomycin MIC at 0.5 times MIC incubated for 18 to 20 hrs by broth microdilution method; assay type: functional; details: time 18-20 hrs
Staphylococcus aureus [2] = assay: Potentiation of vancomycin-induced antibacterial activity against vancomycin-resistant Staphylococcus aureus 12 assessed as vancomycin MIC at 0.5 times MIC incubated for 18 to 20 hrs by broth microdilution method; assay type: functional; details: time 18-20 hrs
Staphylococcus aureus [3] = assay: Antibacterial activity against methicillin-resistant Staphylococcus aureus NRS 123 (USA400) incubated for 18 to 20 hrs by broth microdilution method; assay type: functional; details: time 18-20 hrs
Staphylococcus aureus [4] = assay: Potentiation of vancomycin-induced antibacterial activity against vancomycin-resistant Staphylococcus aureus 1 assessed as vancomycin MIC at 0.5 times MIC incubated for 18 to 20 hrs by broth microdilution method; assay type: functional; details: time 18-20 hrs
Staphylococcus aureus [5] = assay: Antibacterial activity against methicillin-resistant Staphylococcus aureus NRS 385 (USA500) incubated for 18 to 20 hrs by broth microdilution method; assay type: functional; details: time 18-20 hrs
Staphylococcus aureus [6] = assay: Potentiation of vancomycin-induced antibacterial activity against vancomycin-resistant Staphylococcus aureus 3b assessed as vancomycin MIC at 0.5 times MIC incubated for 18 to 20 hrs by broth microdilution method; assay type: functional; details: time 18-20 hrs
Staphylococcus aureus [7] = assay: Potentiation of vancomycin-induced antibacterial activity against vancomycin-resistant Staphylococcus aureus 9 assessed as vancomycin MIC at 0.5 times MIC incubated for 18 to 20 hrs by broth microdilution method; assay type: functional; details: time 18-20 hrs
Staphylococcus aureus [8] = assay: Antibacterial activity against methicillin-resistant Staphylococcus aureus USA300 incubated for 18 to 20 hrs by broth microdilution method; assay type: functional; details: time 18-20 hrs
[9] = Cytotoxicity against human Caco-2 cells assessed as cell viability at upto 128 ug/ml incubated for 24 hrs by MTS assay relative to control; assay type: toxicity, cell-based; details: up to 128 µg/mL, read-out: Activity
Staphylococcus aureus [10] = assay: Antibacterial activity against methicillin-resistant Staphylococcus aureus USA400 NRS 123 assessed as time of post-antibiotic effect at 5 times MIC incubated for 2 hrs followed by compound washout and measured every single 1 hr; assay type: functional
Staphylococcus aureus [11] = assay: Antibacterial activity against Vancomycin-resistant Staphylococcus aureus 10 incubated for 18 to 20 hrs by broth microdilution method; assay type: functional; details: time 18-20 hrs
[12] = Cytotoxicity against human HaCaT cells assessed as cell viability at 64 ug/ml incubated for 24 hrs by MTS assay relative to control; assay type: toxicity, cell-based; details: at 64 µg/mL, read-out: Activity
Staphylococcus aureus [13] = assay: Antibacterial activity against methicillin-resistant Staphylococcus aureus NRS 386 (USA700) incubated for 18 to 20 hrs by broth microdilution method; assay type: functional; details: time 18-20 hrs
Staphylococcus aureus [14] = assay: Antibacterial activity against methicillin-sensitive Staphylococcus aureus ATCC 6538 incubated for 18 to 20 hrs by broth microdilution method; assay type: functional; details: time 18-20 hrs
Staphylococcus aureus [15] = assay: Antibacterial activity against methicillin-resistant Staphylococcus aureus USA300 infected in BALB/c mouse assessed as recovery of body weight loss administered 72 hrs post infection topically twice daily for 4 days; assay type: functional, organism-based; details: time 4.0 day
[16] = Hemolytic activity in rabbit erythrocytes at 32 ug/ml incubated for 30 min by absorbance based analysis relative to control; assay type: toxicity, cell-based, Oryctolagus cuniculus, Erythrocyte; details: at 32 µg/mL, read-out: Activity
Staphylococcus aureus [17] = assay: Potentiation of vancomycin-induced antibacterial activity against vancomycin-resistant Staphylococcus aureus 13 assessed as vancomycin MIC at 0.5 times MIC incubated for 18 to 20 hrs by broth microdilution method; assay type: functional; details: time 18-20 hrs
Staphylococcus aureus [18] = assay: Potentiation of vancomycin-induced antibacterial activity against vancomycin-resistant Staphylococcus aureus 10 assessed as vancomycin MIC at 0.5 times MIC incubated for 18 to 20 hrs by broth microdilution method; assay type: functional; details: time 18-20 hrs
Staphylococcus aureus [19] = assay: Antibacterial activity against methicillin-resistant Staphylococcus aureus NRS 119 incubated for 18 to 20 hrs by broth microdilution method; assay type: functional; details: time 18-20 hrs
Staphylococcus aureus [20] = assay: Antibacterial activity against Vancomycin-resistant Staphylococcus aureus 12 incubated for 18 to 20 hrs by broth microdilution method; assay type: functional; details: time 18-20 hrs
Staphylococcus aureus [21] = assay: Antibacterial activity against methicillin-sensitive Staphylococcus aureus NRS 107 incubated for 18 to 20 hrs by broth microdilution method; assay type: functional; details: time 18-20 hrs
[22] = system: Staphylococcus epidermidis; assay: Antibacterial activity against Staphylococcus epidermidis NRS 101 incubated for 18 to 20 hrs by broth microdilution method; assay type: functional; details: time 18-20 hrs
Staphylococcus aureus [23] = assay: Antibacterial activity against methicillin-resistant Staphylococcus aureus NRS 384 (USA300) incubated for 18 to 20 hrs by broth microdilution method; assay type: functional; details: time 18-20 hrs
Staphylococcus aureus [24] = assay: Antibacterial activity against Vancomycin-resistant Staphylococcus aureus 9 incubated for 18 to 20 hrs by broth microdilution method; assay type: functional; details: time 18-20 hrs
Staphylococcus aureus [25] = assay: Potentiation of vancomycin-induced antibacterial activity against vancomycin-resistant Staphylococcus aureus 3 assessed as vancomycin MIC at 0.5 times MIC incubated for 18 to 20 hrs by broth microdilution method; assay type: functional; details: time 18-20 hrs
Staphylococcus aureus [26] = assay: Antibacterial activity against methicillin-resistant Staphylococcus aureus USA300 infected in BALB/c mouse assessed as reduction in bacterial count administered 72 hrs post infection topically twice daily for 4 days; assay type: functional, organism-based; details: time 4.0 day
Staphylococcus aureus [27] = assay: Antibacterial activity against methicillin-resistant Staphylococcus aureus USA300 infected in BALB/c mouse assessed as reduction in bacterial count in spleen administered 72 hrs post infection topically twice daily for 4 days; assay type: functional, organism-based; details: time 4.0 day
Caco-2 [28] = assay: Cytotoxicity against human Caco-2 cells assessed as reduction in cell viability at 64 ug/ml incubated for 24 hrs by MTS assay; assay type: toxicity, cell-based; details: caco-2, 24 h, dose 64 µg/ml
Staphylococcus aureus [29] = assay: Induction of drug resistance in methicillin-resistant Staphylococcus aureus USA400 NRS 123 assessed as fold increase in MIC measured after 15 passages by broth microdilution assay; assay type: functional
Caco-2 [30] = assay: Cytotoxicity against human Caco-2 cells at 128 ug/ml incubated for 24 hrs by MTS assay; assay type: toxicity, cell-based; details: caco-2, 24 h, dose 128 µg/ml
[31] = Cytotoxicity against human HaCaT cells assessed as cell viability upto 128 ug/ml incubated for 24 hrs by MTS assay relative to control; assay type: toxicity, cell-based; details: up to 128 µg/mL, read-out: Activity
Staphylococcus aureus [32] = assay: Induction of drug resistance in methicillin-resistant Staphylococcus aureus USA400 NRS 123 assessed as fold increase in MIC measured after 7 passages by broth microdilution assay; assay type: functional

C/C(=N\NC(=N)N)c1ccc(NC(=O)Nc2ccc(-c3ccco3)cc2)cc1
MIC (Staphylococcus aureus [1]): 8 µg/mL | MIC (Staphylococcus aureus [2]): 512 µg/mL | MIC (Staphylococcus aureus [3]): 2 µg/mL (≈ 5.31 µM) | MIC (Staphylococcus aureus [4]): 2 µg/mL | MIC (Staphylococcus aureus [5]): 8 µg/mL (≈ 21.3 µM) | MIC (Staphylococcus aureus [6]): 8 µg/mL | MIC (Staphylococcus aureus [7]): 128 µg/mL | MIC (Staphylococcus aureus [8]): 4 µg/mL (≈ 10.6 µM) | viability at 24 h [9]: 100% | Time (Staphylococcus aureus [10]): 5 h | MIC (Staphylococcus aureus [11]): 4 µg/mL (≈ 10.6 µM) | viability at 24 h, 64 ug/ml [12]: 100% | MIC (Staphylococcus aureus [13]): 2 µg/mL (≈ 5.31 µM) | MIC (Staphylococcus aureus [14]): 2 µg/mL (≈ 5.31 µM) | Activity (Staphylococcus aureus [15]): Active | hemolysis at 0.5 h, 32 ug/ml [16]: < 2% | MIC (Staphylococcus aureus [17]): 512 µg/mL | MIC (Staphylococcus aureus [18]): 8 µg/mL | MIC (Staphylococcus aureus [19]): 4 µg/mL (≈ 10.6 µM) | MIC (Staphylococcus aureus [20]): 4 µg/mL (≈ 10.6 µM) | MIC (Staphylococcus aureus [21]): 8 µg/mL (≈ 21.3 µM) | MIC [22]: 2 µg/mL (≈ 5.31 µM) | MIC (Staphylococcus aureus [23]): 4 µg/mL (≈ 10.6 µM) | MIC (Staphylococcus aureus [24]): 4 µg/mL (≈ 10.6 µM) | MIC (Staphylococcus aureus [25]): 2 µg/mL

CC(=O)O[C@H]1C[C@@]2(C)[C@@H](C[C@@H](O)[C@H]3[C@@]4(C)CC[C@@H](O)[C@@H](C)[C@@H]4CC[C@@]32C)/C1=C(\CCC=C(C)C)C(=O)O
Activity (Staphylococcus aureus [26]): Active | Activity (Staphylococcus aureus [15]): Active | Activity (Staphylococcus aureus [27]): Active

C/C(=N\NC(=N)N)c1ccc(NC(=O)Nc2ccc(-c3ccc(C)cc3)cc2)cc1
MIC (Staphylococcus aureus [8]): 4 µg/mL (≈ 9.99 µM)

C/C(=N\NC(=N)N)c1ccc(NC(=O)Nc2ccc(-c3cccnc3)cc2)cc1
MIC (Staphylococcus aureus [8]): 4 µg/mL (≈ 10.3 µM)

C/C(=N\NC(=N)N)c1ccc(NC(=O)Nc2ccc(-c3cccc(C)c3)cc2)cc1
MIC (Staphylococcus aureus [8]): 4 µg/mL (≈ 9.99 µM)

C/C(=N\NC(=N)N)c1ccc(NC(=O)Nc2ccc(-c3cc4ccccc4s3)cc2)cc1
MIC (Staphylococcus aureus [8]): 4 µg/mL (≈ 9.04 µM)

C/C(=N\NC(=N)N)c1ccc(NC(=O)Nc2ccc(-c3cc4ccccc4o3)cc2)cc1
MIC (Staphylococcus aureus [8]): 4 µg/mL (≈ 9.38 µM)

C/C(=N\NC(=N)N)c1ccc(NC(=O)Nc2ccc(-c3ccccc3)cc2)cc1
MIC (Staphylococcus aureus [8]): 4 µg/mL (≈ 10.4 µM)

C/C(=N\NC(=N)N)c1ccc(NC(=O)Nc2ccc(/C=C/c3ccccc3)cc2)cc1
Activity (Caco-2 [28]): Non-Toxic | MIC (Staphylococcus aureus [3]): 4 µg/mL (≈ 9.7 µM) | MIC (Staphylococcus aureus [5]): 8 µg/mL (≈ 19.4 µM) | Time (Staphylococcus aureus [10]): 3 h | fold change (FC) (Staphylococcus aureus [29]): 1 | MIC (Staphylococcus aureus [11]): 8 µg/mL (≈ 19.4 µM) | viability at 24 h, 64 ug/ml [12]: 100% | MIC (Staphylococcus aureus [13]): 4 µg/mL (≈ 9.7 µM) | MIC (Staphylococcus aureus [14]): 16 µg/mL (≈ 38.8 µM) | MIC (Staphylococcus aureus [19]): 16 µg/mL (≈ 38.8 µM) | MIC (Staphylococcus aureus [20]): 8 µg/mL (≈ 19.4 µM) | MIC (Staphylococcus aureus [21]): 8 µg/mL (≈ 19.4 µM) | MIC [22]: 8 µg/mL (≈ 19.4 µM) | MIC (Staphylococcus aureus [23]): 2 µg/mL (≈ 4.85 µM) | MIC (Staphylococcus aureus [24]): 16 µg/mL (≈ 38.8 µM) | Activity (Caco-2 [30]): Toxic

C/C(=N\NC(=N)N)c1ccc(NC(=O)Nc2ccc(-c3cccs3)cc2)cc1
MIC (Staphylococcus aureus [3]): 4 µg/mL (≈ 10.2 µM) | MIC (Staphylococcus aureus [5]): 8 µg/mL (≈ 20.4 µM) | MIC (Staphylococcus aureus [8]): 4 µg/mL (≈ 10.2 µM) | viability at 24 h [9]: 100% | Time (Staphylococcus aureus [10]): 3 h | fold change (FC) (Staphylococcus aureus [29]): 1 | MIC (Staphylococcus aureus [11]): 16 µg/mL (≈ 40.8 µM) | MIC (Staphylococcus aureus [13]): 4 µg/mL (≈ 10.2 µM) | MIC (Staphylococcus aureus [14]): 4 µg/mL (≈ 10.2 µM) | MIC (Staphylococcus aureus [19]): 16 µg/mL (≈ 40.8 µM) | MIC (Staphylococcus aureus [20]): 8 µg/mL (≈ 20.4 µM) | MIC (Staphylococcus aureus [21]): 2 µg/mL (≈ 5.1 µM) | MIC [22]: 8 µg/mL (≈ 20.4 µM) | MIC (Staphylococcus aureus [23]): 4 µg/mL (≈ 10.2 µM) | viability at 24 h [31]: 100% | MIC (Staphylococcus aureus [24]): 8 µg/mL (≈ 20.4 µM)

CO[C@H]1/C=C/O[C@@]2(C)Oc3c(C)c(O)c4c(O)c(c(/C=N/N5CCN(C)CC5)c(O)c4c3C2=O)NC(=O)/C(C)=C\C=C\[C@H](C)[C@H](O)[C@@H](C)[C@@H](O)[C@@H](C)[C@H](OC(C)=O)[C@@H]1C
fold change (FC) (Staphylococcus aureus [29]): > 500000 | fold change (FC) (Staphylococcus aureus [32]): 8

C/C(=N\NC(=N)N)c1ccc(NC(=O)Nc2ccc(-c3ccccn3)cc2)cc1
MIC (Staphylococcus aureus [8]): 4 µg/mL (≈ 10.3 µM)
